Assay results taken from patent US20140249135A1, “PIM KINASE INHIBITORS AND METHODS OF THEIR USE” (NOVARTIS AG, priority 2007, published 2014).
Read-outs that look alike come from different tables or passages of the source.

Tests used:
Pim1 kinase = Pim1 kinase (Homo sapiens, UniProt P11309); assay: Pim1 ATP depletion assay; type: biochemical; details: Pim1 ATP depletion assay;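 note: Luciferase-luciferin luminescence readout of residual ATP after PIM1 transfers phosphate to a peptide substrate, 40 µM ATP added, reaction run to roughly half ATP consumption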
Pim2 kinase = Pim2 kinase (Homo sapiens, UniProt Q9P1W9); assay: Pim2 ATP depletion assay; type: biochemical;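 note: Luciferase-based luminescent readout of ATP remaining after PIM2 phosphorylates a BAD peptide, final 5 nM enzyme, 4 µM ATP, 10 µM peptide, 2.5% DMSO, run to roughly half ATP consumption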
Pim3 kinase = Pim3 kinase (Homo sapiens, UniProt Q86V86); assay: Pim3 ATP depletion assay; type: biochemical
[1] = target: T1, human full length PKCE enzyme (Homo sapiens, UniProt Q02156); assay: In vitro PKCE assay; type: biochemical; details: 10 nM enzyme, 40 uM peptide substrate, 20 uM ATP, KinaseGlo Plus readout; read-out: PKCε IC50
T1 construct: human full length PKCE enzyme purchased from InVitrogen; purchased InVitrogen
T1 sequence (Q02156 1-737): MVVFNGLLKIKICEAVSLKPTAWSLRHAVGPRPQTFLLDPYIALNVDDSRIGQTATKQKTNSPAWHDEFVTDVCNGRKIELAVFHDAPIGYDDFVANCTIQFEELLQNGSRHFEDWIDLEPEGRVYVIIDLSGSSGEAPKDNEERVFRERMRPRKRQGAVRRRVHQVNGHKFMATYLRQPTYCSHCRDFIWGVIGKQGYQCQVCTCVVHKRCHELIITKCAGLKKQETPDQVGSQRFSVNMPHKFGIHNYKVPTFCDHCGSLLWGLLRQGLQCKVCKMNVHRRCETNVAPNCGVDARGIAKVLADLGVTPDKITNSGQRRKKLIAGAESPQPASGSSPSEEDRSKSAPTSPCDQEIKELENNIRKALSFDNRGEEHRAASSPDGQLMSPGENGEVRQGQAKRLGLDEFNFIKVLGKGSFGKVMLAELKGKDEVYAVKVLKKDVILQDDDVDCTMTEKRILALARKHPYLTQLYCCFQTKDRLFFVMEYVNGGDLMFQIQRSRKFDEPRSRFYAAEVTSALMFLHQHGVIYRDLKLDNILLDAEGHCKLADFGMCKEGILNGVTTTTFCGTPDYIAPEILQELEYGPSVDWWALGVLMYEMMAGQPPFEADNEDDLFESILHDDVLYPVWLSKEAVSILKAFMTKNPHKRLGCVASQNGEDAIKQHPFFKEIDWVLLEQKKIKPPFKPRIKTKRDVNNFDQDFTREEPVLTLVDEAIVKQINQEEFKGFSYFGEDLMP

HEL 92.1.7 cells = assay: Cell proliferation assay (CellTiter-Glo), HEL 92.1.7; type: cell-based; details: Homo sapiens
Method: HEL 92.1.7 cells (ATTC No. TIB-180, an erythroleukemia line derived from malignant peripheral blood), MV4-11 cells (ATCC No. CRL-9591, a human acute monocytic leukemia line) and PC3 cells (ATCC No. CRL-1435, a human prostatic adenocarcinoma line) were cultured in RPMI1640 supplemented with 10% FBS, sodium pyruvate and antibiotics. Cells were plated in the same medium at a density of 1000 cells per well into 96 well tissue culture plates, with outside wells vacant, on the day of assay.
Test compounds supplied in DMSO were diluted into DMSO at 500 times the desired final concentrations before dilution into culture media to 2 times final concentrations. Equal volumes of 2× compounds were added to the cells in 96 well plates and incubated at 37° C. for 3 days.
After 3 days plates were equilibrated to room temperature and equal volume of CellTiter-Glow Reagent (Promega) was added to the culture wells. The plates were agitated briefly and luminescent signal was measured with luminometer. The percent inhibition of the signal seen in cells treated with DMSO alone vs. cells treated with control compound was calculated and used to determine EC50 values (i.e., the concentration of a test compound that is required to obtain 50% of the maximum effect in the cells) for tested compounds, as shown in Example 763.

Pim1 kinase, sequence (P11309 whole entry): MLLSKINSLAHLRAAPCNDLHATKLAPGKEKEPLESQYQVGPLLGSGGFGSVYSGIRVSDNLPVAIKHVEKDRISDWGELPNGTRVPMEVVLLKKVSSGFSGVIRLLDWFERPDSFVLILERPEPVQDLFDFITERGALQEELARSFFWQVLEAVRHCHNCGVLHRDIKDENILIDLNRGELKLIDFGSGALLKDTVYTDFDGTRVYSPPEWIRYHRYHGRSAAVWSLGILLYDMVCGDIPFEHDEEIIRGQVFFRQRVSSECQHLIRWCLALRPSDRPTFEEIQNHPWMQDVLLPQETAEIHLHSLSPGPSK
Pim2 kinase, sequence (Q9P1W9 whole entry): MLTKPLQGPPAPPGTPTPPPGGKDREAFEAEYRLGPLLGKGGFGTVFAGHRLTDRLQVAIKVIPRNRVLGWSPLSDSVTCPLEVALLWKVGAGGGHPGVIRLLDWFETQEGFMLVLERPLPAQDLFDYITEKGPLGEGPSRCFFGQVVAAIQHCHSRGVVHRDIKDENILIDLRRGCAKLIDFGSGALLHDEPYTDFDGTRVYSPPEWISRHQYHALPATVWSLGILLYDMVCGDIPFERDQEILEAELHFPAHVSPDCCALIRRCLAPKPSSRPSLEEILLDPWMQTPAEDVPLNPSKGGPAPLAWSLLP

SMILES	IC50 (Pim1 kinase; read-out: IC50 (μM) PIM1) [µM]	IC50 (Pim2 kinase; read-out: IC50 (μM) PIM2) [µM]	IC50 (Pim3 kinase; read-out: IC50 (μM) PIM3) [µM]	IC50 [1] [nM]	EC50 (HEL 92.1.7 cells; read-out: EC50 (μM) HEL 92.1.7) [µM]	IC50 (Pim1 kinase; read-out: PIM1 IC50) [µM]	IC50 (Pim2 kinase; read-out: PIM2 IC50) [µM]	IC50 (Pim3 kinase; read-out: PIM3 IC50) [µM]	EC50 (HEL 92.1.7 cells; read-out: HEL 92.1.7 EC50) [µM]
Nc1ncc(Br)nc1C(=O)Nc1[nH]c(=O)ncc1-c1cccs1 [Example 142, 3-amino-6-bromo-N-[2-oxo-5-(2-thienyl)-2,3-dihydro-pyrimidin-4-yl]pyrazine-2-carboxamide]	< 1	< 1	< 1	1000 to 10000	1 to 5				
Nc1ncc(Br)nc1C(=O)Nc1[nH]c(=O)ncc1-c1nccs1 [Example 143, 3-amino-6-bromo-N-[2-oxo-5-(1,3-thiazol-2-yl)-2,3-dihydro-pyrimidin-4-yl]pyrazine-2-carboxamide]	< 1	< 1	< 1	> 25000	1 to 5				
Nc1ncc(Br)nc1C(=O)Nc1[nH]c(=O)ncc1-c1ccccn1 [Example 145, 3-amino-6-bromo-N-(2-oxo-5-pyridin-2-yl-2,3-dihydro-pyrimidin-4-yl)pyrazine-2-carboxamide]	< 1	< 1	< 1	> 25000	1 to 5				
Nc1nccnc1C(=O)Nc1cnccc1N1CCC[C@@H](N)C1 [Example 177, 3-amino-N-{4-[(3R)-3-amino-piperidin-1-yl]pyridin-3-yl}pyrazine-2-carboxamide]		< 1	< 1	< 1000	> 10				
Cc1ccc(S(=O)(=O)NC(C)(C)C)cc1-c1ccc(N)c(C(=O)Nc2cnccc2N2CCC[C@H](N)C2)n1 [Example 335, 3-amino-6-(5-tert-butyl-sulfamoyl-2-methyl-phenyl)-pyridine-2-carboxylic acid ((S)-3-amino-3,4,5,6-tetra-hydro-2H-[1,4′]bipyridinyl-3′-yl)-amide]	< 1	< 1	< 1		5 to 10				
COc1ccccc1-c1ccc(N)c(C(=O)Nc2cnccc2N2CCC[C@H](N)C2)n1 [Example 337]	< 1	< 1	< 1		5 to 10				
Nc1ccc(-c2ccncc2F)nc1C(=O)Nc1cnccc1N1CCC[C@H](N)C1 [Example 339, 5-amino-3′-fluoro-[2,4′]bi-pyridinyl-6-carboxylic acid ((S)-3-amino-3,4,5,6-tetra-hydro-2H-[1,4′]bipyridinyl-3′-yl)-amide]	< 1	< 1	< 1		1 to 5				
Nc1ncc(-c2ccc(O)cc2)nc1C(=O)Nc1cnccc1N1CCCC(N)C1 (centres unmarked) [Example 358, 3-amino-6-(4-hydroxy-phenyl)-pyrazine-2-carboxylic acid (3-amino-3,4,5,6-tetra-hydro-2H-[1,4′]bipyridinyl-3′-yl)-amide]	< 1	< 1	< 1		< 1				
Nc1cc(-c2ccc(N)c(C(=O)Nc3cnccc3N3CCC[C@H](N)C3)n2)ccn1 [Example 412, 5,2′-diamino-[2,4′]bipyridinyl-6-carboxylic acid ((S)-3-amino-3,4,5,6-tetrahydro-2H-[1,4′]bi-pyridinyl-3′-yl)-amide]	< 1	< 1	< 1		5 to 10				
COc1cccc(-c2ccc(N)c(C(=O)Nc3cnccc3N3CCC[C@H](N)C3)n2)n1 [Example 413, 5-amino-6′-methoxy-[2,2′]bi-pyridinyl-6-carboxylic acid ((S)-3-amino-3,4,5,6-tetrahydro-2H-[1,4′]bipyridinyl-3′-yl)-amide]	< 1	< 1	< 1		< 1				
Nc1ccc(-c2cccnc2)nc1C(=O)Nc1cnccc1N1CCC[C@H](N)C1 [Example 414, 5-amino-[2,3′]bipyridinyl-6-carboxylic acid ((S)-3-amino-3,4,5,6-tetrahydro-2H-[1,4′]bi-pyridinyl-3′-yl)-amide]	< 1	< 1	< 1		1 to 5				
Nc1ccc(-c2ccncc2)nc1C(=O)Nc1cnccc1N1CCC[C@H](N)C1 [Example 415, 5-amino-[2,4′]bipyridinyl-6-carboxylic acid ((S)-3-amino-3,4,5,6-tetrahydro-2H-[1,4′]bi-pyridinyl-3′-yl)-amide]	< 1	< 1	< 1		< 1				
Nc1ccc(-c2cccnc2F)nc1C(=O)Nc1cnccc1N1CCC[C@H](N)C1 [Example 419, 5-amino-2′-fluoro-[2,3′]bi-pyridinyl-6-carboxylic acid ((S)-3-amino-3,4,5,6-tetrahydro-2H-[1,4′]bipyridinyl-3′-yl)-amide]	< 1	< 1	< 1		1 to 5				
COc1ncccc1-c1ccc(N)c(C(=O)Nc2cnccc2N2CCC[C@H](N)C2)n1 [Example 423, 5-amino-2′-methoxy-[2,3′]bi-pyridinyl-6-carboxylic acid ((S)-3-amino-3,4,5,6-tetrahydro-2H-[1,4′]bipyridinyl-3′-yl)-amide]	< 1	< 1	< 1		1 to 5				
Cc1cccc(C)c1-c1ccc(N)c(C(=O)Nc2cnccc2N2CCC[C@H](N)C2)n1 [Example 426, 3-amino-6-(2,6-dimethyl-phenyl)-pyridine-2-carboxylic acid ((S)-3-amino-3,4,5,6-tetra-hydro-2H-[1,4′]bipyridinyl-3′-yl)-amideQ]	< 1	< 1	< 1		5 to 10				
COc1cc(F)ccc1-c1ccc(N)c(C(=O)Nc2cnccc2N2CCC[C@H](N)C2)n1 [Example 428, 3-amino-6-(4-fluoro-2-methoxy-phenyl)-pyridine-2-carboxylic acid ((S)-3-amino-3,4,5,6-tetra-hydro-2H-[1,4′]bipyridinyl-3′-yl)-amide]	< 1	< 1	< 1		5 to 10				
Cc1cc(Cl)ccc1-c1ccc(N)c(C(=O)Nc2cnccc2N2CCC[C@H](N)C2)n1 [Example 429, 3-amino-6-(4-chloro-2-methyl-phenyl)-pyridine-2-carboxylic acid ((S)-3-amino-3,4,5,6-tetra-hydro-2H-[1,4′]bipyridinyl-3′-yl)-amide]	< 1	< 1	< 1		5 to 10				
Cc1cc(F)ccc1-c1ccc(N)c(C(=O)Nc2cnccc2N2CCC[C@H](N)C2)n1 [Example 430, 3-amino-6-(4-fluoro-2-methyl-phenyl)-pyridine-2-carboxylic acid ((S)-3-amino-3,4,5,6-tetra-hydro-2H-[1,4′]bipyridinyl-3′-yl)-amide]	< 1	< 1	< 1		1 to 5				
COc1ncccc1-c1ccc(N)c(C(=O)Nc2cnccc2N2CCCCC2)n1 [Example 587, 5-amino-2′-methoxy-[2,3′]bi-pyridinyl-6-carboxylic acid (3,4,5,6-tetrahydro-2H-[1,4′]bipyridinyl-3′-yl)-amide]						< 1	< 1	< 1	< 1
Cc1ccccc1-c1cnc(N)c(C(=O)Nc2[nH]c(=O)ncc2N2CCCCC2)n1 [Example 591, 3-amino-6-o-tolyl-pyrazine-2-carboxylic acid (2-oxo-5-piperidin-1-yl-2,3-dihydro-pyrimidin-4-yl)-amide]						< 1	< 1	< 1	5 to 10
